According to patent US20090191183A1, “SUBSTITUTED INDOLES” (AUSPEX PHARMACEUTICALS, INC., priority 2007, published 2009):
One block for each molecule: values may come before it.

Key:
[1] = In vitro human liver microsomal (HLM) stability assay; assay type: in vitro ADME; conditions: vs non-isotopically enriched drug; 1 mg per mL liver microsome protein, 1 μM, 37° C.; + marks the range of the column head
Method: Liver microsomal stability assays are conducted at 1 mg per mL liver microsome protein with an NADPH-generating system in 2% NaHCO3 (2.2 mM NADPH, 25.6 mM glucose 6-phosphate, 6 units per mL glucose 6-phosphate dehydrogenase and 3.3 mM MgCl2). Test compounds are prepared as solutions in 20% acetonitrile-water and added to the assay mixture (final assay concentration 1 μM) and incubated at 37° C. Final concentration of acetonitrile in the assay should be <1%. Aliquots (50 μL) are taken out at times 0, 7.5, 15, 22.5, and 30 min, and diluted with ice cold acetonitrile (200 μL) to stop the reactions. Samples are centrifuged at 12,000 RPM for 10 min to precipitate proteins. Supernatants are transferred to micro centrifuge tubes and stored for LC/MS/MS analysis of the degradation half-life of the test compounds.

[2] = treatment of mild to moderate asthma; cited from earlier work
cytochrome P450 CYP2C9 = target: T1, cytochrome P450 CYP2C9 (Homo sapiens, UniProt P11712); conditions: human liver microsomes; at concentrations near clinically achieved total plasma concentrations; cited from earlier work
T1 construct: in vitro studies using human liver microsomes; from tissue; host or cells: human liver microsomes
T1 sequence (P11712 whole entry): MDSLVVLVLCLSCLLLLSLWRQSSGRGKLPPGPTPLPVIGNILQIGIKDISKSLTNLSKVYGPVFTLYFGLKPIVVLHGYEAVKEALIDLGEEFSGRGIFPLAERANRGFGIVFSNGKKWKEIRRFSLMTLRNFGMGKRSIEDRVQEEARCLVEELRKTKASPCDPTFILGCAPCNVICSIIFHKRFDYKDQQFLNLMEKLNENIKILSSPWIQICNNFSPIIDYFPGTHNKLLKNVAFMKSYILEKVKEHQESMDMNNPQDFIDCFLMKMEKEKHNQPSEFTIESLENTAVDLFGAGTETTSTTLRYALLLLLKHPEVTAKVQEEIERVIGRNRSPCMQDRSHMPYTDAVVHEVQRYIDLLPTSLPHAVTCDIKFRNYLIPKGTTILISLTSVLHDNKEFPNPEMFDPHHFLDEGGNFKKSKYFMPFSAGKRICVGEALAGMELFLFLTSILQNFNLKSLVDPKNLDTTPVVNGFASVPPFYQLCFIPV

cytochrome P450 CYP3A4 = target: T2, cytochrome P450 CYP3A4 (Homo sapiens, UniProt P08684); conditions: human liver microsomes; at concentrations near clinically achieved total plasma concentrations; cited from earlier work
T2 construct: in vitro studies using human liver microsomes; from tissue; host or cells: human liver microsomes
T2 sequence (P08684 whole entry): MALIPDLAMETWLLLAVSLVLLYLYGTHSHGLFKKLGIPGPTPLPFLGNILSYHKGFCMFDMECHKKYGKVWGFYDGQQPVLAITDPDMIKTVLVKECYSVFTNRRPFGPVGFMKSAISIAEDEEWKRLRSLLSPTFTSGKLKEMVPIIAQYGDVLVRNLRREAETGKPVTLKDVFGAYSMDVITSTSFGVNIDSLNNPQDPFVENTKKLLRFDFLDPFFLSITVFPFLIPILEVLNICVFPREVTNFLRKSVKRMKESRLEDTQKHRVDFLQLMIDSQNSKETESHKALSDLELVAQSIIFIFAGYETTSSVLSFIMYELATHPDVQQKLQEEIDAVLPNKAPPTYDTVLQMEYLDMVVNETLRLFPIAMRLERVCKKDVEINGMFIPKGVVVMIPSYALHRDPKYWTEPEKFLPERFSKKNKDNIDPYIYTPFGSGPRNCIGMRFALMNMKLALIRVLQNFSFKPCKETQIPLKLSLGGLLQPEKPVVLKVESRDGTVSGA

SMILES: COc1cc(C(=O)NS(=O)(=O)c2ccccc2C)ccc1Cc1cn(C)c2ccc(NC(=O)OC3CCCC3)cc12 [Example 1, reference compound]
% increase of HLM degradation half-life, 5%-15% [1]: + (5%-15%)

SMILES: [2H]C([2H])([2H])Oc1cc(C(=O)NS(=O)(=O)c2ccccc2C)ccc1Cc1cn(C)c2ccc(NC(=O)OC3CCCC3)cc12 [Example 2]
% increase of HLM degradation half-life, 5%-15% [1]: + (5%-15%)

SMILES: COc1cc(C(=O)NS(=O)(=O)c2ccccc2C)ccc1Cc1cn(C)c2ccc(NC(=O)OC3CCCC3)cc12 [zafirlukast, 4-(5-cyclopentyloxy-carbonylamino-1-methyl-indol-3-ylmethyl)-3-methoxy-N—O-tolylsulfonylbenzamide]
hepatotoxicity [2]: occasional idiosyncratic hepatotoxicity | inhibition of cytochrome P450 CYP2C9 isoenzyme (cytochrome P450 CYP2C9): inhibits | inhibition of cytochrome P450 CYP3A4 isoenzyme (cytochrome P450 CYP3A4): inhibits

The next lines start with the values.

% increase of HLM degradation half-life, column >25% [1]: + (>25%)
SMILES: [2H]C([2H])([2H])Oc1cc(C(=O)NS(=O)(=O)c2ccccc2C([2H])([2H])[2H])ccc1Cc1cn(C([2H])([2H])[2H])c2ccc(NC(=O)OC3CCCC3)cc12 [Example 7]

% increase of HLM degradation half-life, 15%-25% [1]: + (15%-25%)
SMILES: [2H]C([2H])([2H])c1ccccc1S(=O)(=O)NC(=O)c1ccc(Cc2cn(C)c3ccc(NC(=O)OC4CCCC4)cc23)c(OC)c1 [Example 3]

% increase of HLM degradation half-life, 15%-25% [1]: + (15%-25%)
SMILES: [2H]C([2H])([2H])Oc1cc(C(=O)NS(=O)(=O)c2ccccc2C([2H])([2H])[2H])ccc1Cc1cn(C([2H])([2H])[2H])c2ccc(NC(=O)OC3([2H])C([2H])([2H])C([2H])([2H])C([2H])([2H])C3([2H])[2H])cc12 [Example 6]

% increase of HLM degradation half-life, 15%-25% [1]: + (15%-25%)
SMILES: [2H]C([2H])([2H])n1cc(Cc2ccc(C(=O)NS(=O)(=O)c3ccccc3C)cc2OC)c2cc(NC(=O)OC3CCCC3)ccc21 [Example 4]
